Three compounds from doi:10.1101/2023.12.04.569845, “Identification of 4-(6-((2-methoxyphenyl)amino)pyrazin-2-yl)benzoic acids as CSNK2A inhibitors with antiviral activity and improved selectivity over PIM3” (bioRxiv, 2023) can be followed below.

Common to all, as to assay: biochemical
Holding throughout (parameters): Thermal shift (DSF, SYPRO Orange) Tm shift of recombinant kinase domains at 10 uM compound

The target in one experiment is T1, LOK (Homo sapiens, UniProt O94804).
T1 construct: gene STK10
T1 sequence (O94804 whole entry): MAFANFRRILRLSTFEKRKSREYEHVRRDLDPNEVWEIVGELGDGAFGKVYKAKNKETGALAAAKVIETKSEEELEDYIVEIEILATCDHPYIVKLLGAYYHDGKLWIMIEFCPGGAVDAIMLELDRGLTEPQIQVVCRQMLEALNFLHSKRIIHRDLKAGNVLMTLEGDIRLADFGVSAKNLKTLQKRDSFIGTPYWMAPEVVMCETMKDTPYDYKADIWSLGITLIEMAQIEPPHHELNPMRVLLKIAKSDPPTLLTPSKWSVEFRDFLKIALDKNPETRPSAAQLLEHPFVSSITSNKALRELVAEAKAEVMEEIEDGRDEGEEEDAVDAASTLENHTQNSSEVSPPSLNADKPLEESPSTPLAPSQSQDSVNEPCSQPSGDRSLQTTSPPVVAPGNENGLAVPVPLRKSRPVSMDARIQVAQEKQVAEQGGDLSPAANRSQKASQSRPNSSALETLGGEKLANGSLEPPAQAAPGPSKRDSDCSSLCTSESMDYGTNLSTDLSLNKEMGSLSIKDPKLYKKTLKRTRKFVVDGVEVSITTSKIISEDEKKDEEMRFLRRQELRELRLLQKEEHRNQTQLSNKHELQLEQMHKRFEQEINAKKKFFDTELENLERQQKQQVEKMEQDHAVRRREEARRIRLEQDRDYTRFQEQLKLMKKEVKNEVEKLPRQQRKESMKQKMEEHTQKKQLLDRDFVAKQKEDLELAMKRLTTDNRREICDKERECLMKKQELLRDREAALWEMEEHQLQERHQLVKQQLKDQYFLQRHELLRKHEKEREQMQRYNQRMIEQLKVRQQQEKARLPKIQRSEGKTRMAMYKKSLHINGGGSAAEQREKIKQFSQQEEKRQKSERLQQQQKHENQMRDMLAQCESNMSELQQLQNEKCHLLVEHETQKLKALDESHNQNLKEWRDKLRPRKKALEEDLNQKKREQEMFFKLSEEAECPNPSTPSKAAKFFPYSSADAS

The next experiment concerns the target T2, ULK1 (Homo sapiens, UniProt O75385).
T2 sequence (O75385 1-1050): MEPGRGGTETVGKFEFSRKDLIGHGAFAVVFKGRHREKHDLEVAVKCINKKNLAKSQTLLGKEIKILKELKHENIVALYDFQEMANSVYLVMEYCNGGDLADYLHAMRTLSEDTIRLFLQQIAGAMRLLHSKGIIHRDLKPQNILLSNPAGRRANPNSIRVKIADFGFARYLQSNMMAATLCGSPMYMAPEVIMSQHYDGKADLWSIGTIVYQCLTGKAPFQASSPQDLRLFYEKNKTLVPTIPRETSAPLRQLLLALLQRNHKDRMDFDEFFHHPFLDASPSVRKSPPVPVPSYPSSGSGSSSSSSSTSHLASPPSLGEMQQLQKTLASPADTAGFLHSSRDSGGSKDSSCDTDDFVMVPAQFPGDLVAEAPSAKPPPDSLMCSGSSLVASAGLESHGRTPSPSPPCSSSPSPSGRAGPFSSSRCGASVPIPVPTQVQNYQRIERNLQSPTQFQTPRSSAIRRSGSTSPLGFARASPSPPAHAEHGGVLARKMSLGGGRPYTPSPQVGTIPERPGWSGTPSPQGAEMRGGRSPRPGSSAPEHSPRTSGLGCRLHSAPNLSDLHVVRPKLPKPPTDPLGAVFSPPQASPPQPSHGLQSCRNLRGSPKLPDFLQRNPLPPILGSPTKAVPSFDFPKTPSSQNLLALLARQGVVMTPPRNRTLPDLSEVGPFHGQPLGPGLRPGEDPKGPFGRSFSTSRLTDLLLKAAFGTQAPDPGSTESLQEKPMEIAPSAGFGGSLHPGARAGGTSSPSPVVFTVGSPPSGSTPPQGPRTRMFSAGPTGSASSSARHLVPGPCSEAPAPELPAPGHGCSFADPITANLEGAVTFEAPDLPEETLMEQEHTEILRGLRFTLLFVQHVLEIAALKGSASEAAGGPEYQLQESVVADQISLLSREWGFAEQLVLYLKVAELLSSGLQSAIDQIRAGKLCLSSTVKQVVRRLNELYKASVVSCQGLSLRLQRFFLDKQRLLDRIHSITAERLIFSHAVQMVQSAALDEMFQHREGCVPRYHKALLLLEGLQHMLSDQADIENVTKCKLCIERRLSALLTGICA

For a further experiment, the target named is AURKB (Homo sapiens, UniProt Q96GD4).
Chain of AURKB (Q96GD4 whole entry): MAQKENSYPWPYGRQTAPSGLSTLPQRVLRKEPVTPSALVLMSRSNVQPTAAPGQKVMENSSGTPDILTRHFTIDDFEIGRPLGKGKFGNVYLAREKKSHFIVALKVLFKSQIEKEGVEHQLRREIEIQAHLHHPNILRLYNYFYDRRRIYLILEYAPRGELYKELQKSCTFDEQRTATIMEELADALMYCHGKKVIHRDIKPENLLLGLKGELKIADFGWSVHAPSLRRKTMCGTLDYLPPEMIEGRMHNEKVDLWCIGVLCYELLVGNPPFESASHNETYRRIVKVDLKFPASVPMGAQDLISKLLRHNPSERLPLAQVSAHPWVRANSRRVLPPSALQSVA
The target of another experiment is T3, NEK1 (Homo sapiens, UniProt Q96PY6).
T3 sequence (Q96PY6 1-1258): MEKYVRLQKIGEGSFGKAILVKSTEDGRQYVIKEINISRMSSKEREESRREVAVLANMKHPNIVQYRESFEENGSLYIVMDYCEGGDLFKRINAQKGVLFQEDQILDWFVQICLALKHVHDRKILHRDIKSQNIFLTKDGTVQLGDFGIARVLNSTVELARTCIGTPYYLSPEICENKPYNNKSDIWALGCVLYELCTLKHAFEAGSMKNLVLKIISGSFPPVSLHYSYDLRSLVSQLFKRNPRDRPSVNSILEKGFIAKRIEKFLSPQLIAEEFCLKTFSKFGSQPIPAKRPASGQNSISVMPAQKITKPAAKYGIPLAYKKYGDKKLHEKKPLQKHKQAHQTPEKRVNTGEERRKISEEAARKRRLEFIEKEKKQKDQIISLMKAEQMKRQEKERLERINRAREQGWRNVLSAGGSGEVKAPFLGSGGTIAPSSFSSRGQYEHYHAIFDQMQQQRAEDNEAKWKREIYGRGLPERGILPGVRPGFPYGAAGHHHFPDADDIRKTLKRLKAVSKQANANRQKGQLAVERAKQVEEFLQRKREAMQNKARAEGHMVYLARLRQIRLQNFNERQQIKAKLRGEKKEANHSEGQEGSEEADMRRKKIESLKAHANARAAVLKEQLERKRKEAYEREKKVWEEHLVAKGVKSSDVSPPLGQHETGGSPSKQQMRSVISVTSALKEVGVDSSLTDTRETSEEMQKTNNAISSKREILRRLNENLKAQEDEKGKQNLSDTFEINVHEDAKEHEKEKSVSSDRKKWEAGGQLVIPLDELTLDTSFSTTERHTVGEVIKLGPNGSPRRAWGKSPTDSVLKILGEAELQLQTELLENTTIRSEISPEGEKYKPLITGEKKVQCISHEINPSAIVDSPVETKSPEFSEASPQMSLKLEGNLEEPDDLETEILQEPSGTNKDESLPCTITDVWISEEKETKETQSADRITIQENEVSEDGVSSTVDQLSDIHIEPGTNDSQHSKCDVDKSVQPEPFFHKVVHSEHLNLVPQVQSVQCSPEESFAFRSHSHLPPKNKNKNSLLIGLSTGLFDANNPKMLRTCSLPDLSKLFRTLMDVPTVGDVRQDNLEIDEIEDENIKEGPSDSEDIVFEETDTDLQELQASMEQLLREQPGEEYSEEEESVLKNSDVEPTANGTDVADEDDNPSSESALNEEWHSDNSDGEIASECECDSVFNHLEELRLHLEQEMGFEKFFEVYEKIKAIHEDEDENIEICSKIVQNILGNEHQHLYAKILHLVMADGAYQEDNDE

Like-named read-outs stand apart in the source and are kept apart here.

On to `COc1ccc(OC(C)C)cc1Nc1cncc(-c2ccc(C(=O)O)cc2)n1` [7c], for which the ΔTm at 10 µM at LOK (read-out: 7c) came to 4 °C; on ULK1 (read-out: 7c) it was 1 °C; on AURKB (read-out: 7c), 2 °C; on NEK1 (read-out: 7c), 0 °C.

Turning to `CC(C)Oc1ccc2ccn(-c3cncc(-c4ccc(C(=O)O)cc4)n3)c2c1` [6c], the ΔTm at 10 µM was determined as 4 °C on LOK (read-out: 6c), 2 °C at ULK1 (read-out: 6c), 4 °C at AURKB (read-out: 6c) and 0 °C at NEK1 (read-out: 6c).

Turning to `CC(C)Nc1ccc2cnn(-c3cncc(-c4ccc(C(=O)O)cc4)n3)c2c1` [compound 2, 2], the ΔTm at 10 µM on LOK (read-out: 2) was found to be 8 °C; at ULK1 (read-out: 2), 3 °C; at AURKB (read-out: 2), 4 °C; on NEK1 (read-out: 2), 1 °C.
